Test results: patent US20080227725A1, “Cosmetic or pharmaceutical composition comprising peptides, uses and treatment processes” (priority 2002, published 2008)
Where a SMILES comes first, the peptide text is derived from it.

Test system: ERG 1-2 molecule
Assay: Cell differentiation marker ERG 1-2 in HaCat keratinocytes, immunofluorescence
Type: cell-based
Details: HaCat human keratinocytes, at 24 hours

N=C(N)NCCC[C@H](N)C(=O)NCC(=O)N[C@@H](CO)C(=O)O [Arg-Gly-Ser] (H-Arg-Gly-Ser-OH)
quantity of ERG molecules present in the cells (intensity of fluorescence), cell differentiation: increases the quantity of ERG molecules
